Data: patent publication US7432301B2, “Use of S-nitrosothiol signaling to treat disordered control of breathing” (University of Virginia Patent Foundation, priority 2001, dated 2008)
Entries after “also recorded” stand apart in the source; their conditions may differ.

Assays:
[1] = Relative stability of deoxygenated blood-derived SNOs; assay type: physicochemical
Description: Oxygenated blood drawn in an airtight syringe with GSH and EDTA (final concentrations 400 μM) by left ventricular puncture (rat) or peripherally (human) was maintained in 21% oxygen. Venous blood was reacted identically and was transferred to a hypoxia chamber under argon. Oxygen tension was measured electrochemically (Chirion). Samples underwent centrifugation (3,000 g for 5 min) followed by ultrafiltration (10K; Millipore), separation and selective ultraviolet photolysis (Jelight PS-3000-30; Laguna-Hills).
(§1) SNOs were prepared by acid nitrosation, titrated to pH 7.4 and maintained in EDTA in the dark at −80° C. until use to prevent decomposition. SNOs were detected by reduction/chemiluminescence as previously described (Fang et al., Biochem. Biophys. Res. Commun. 252, 535-540 (1998)). Briefly, samples were injected into 100 μM CuCl, 1 mM cysteine (pH 6; 50 8C) and purged with helium (grade 5; BOC Gases). Evolved NO was measured by chemiluminescence.

[2] = molecular target: T1, γ-glutamyl transpeptidase (GGT) (Rattus norvegicus, UniProt P07314); assay: Effect of GGT inhibition (acivicin pre-treatment of NTS) on ventilatory effects of SNOs and on ventilatory offset; assay type: in vivo; conditions: for SNO-stimulated VE increase after GGT inhibition: SNO 10 nmol microinjection after pre-treatment with acivicin 7.5 nmol (FIG. 2A)
T1 construct: from tissue; host or cells: nucleus tractus solitarius (brainstem) of living male Sprague-Dawley rats
Source text: CGSNO (10 nmol) stimulated VE increases that were not modified by acivicin (P=NS; n=6). FIG. 2B represents the data generated from a hypoxic ventilatory response in GGT-deficient mice (+/+, wild type; +/−, heterozygotes; −/−, GGT-deficient). Lowest VE during the 30 s after cessation of hypoxia is expressed as percent change from pre-hypoxia baseline (P<0.0001; n=8 each group).
Endothelial transport and targeted neuronal biological activity of GSNO may depend, under certain circumstances, on biochemical modifications such as cleavage by GGT to form CGSNO. […] Moreover, normal ventilatory offset (that is, the gradual return to baseline of VE after recovery from hypoxia that prevents apnea) was inhibited by acivicin. […] This distinction may have pharmacological implications.
(§2) A dual cannula (22G; Plastics One) was implanted close to the nucleus of the solitary tract according to standard stereotaxic coordinates (−14.0 mm bregma, 0.5 mm off midline, 7.0 mm depth; see Paxinos, G. & Watson, C. The Rat Brain in Stereotaxic Coordinates (Academic, New York, 1986), figure 74) through a hole drilled into the occipital skull of male Sprague-Dawley rats (approximately 250 g; pentobarbital anaesthesia). Placement was confirmed histologically after protocol completion. After recovery for 48 h (return to normal feeding and sleep/waking patterns), breath-by-breath ventilation was measured using the barometric method previously described (Gozal et al., J. Appl. Physiol. 81, 2068-2077 (1996)) after simultaneous, bilateral 0.1-ul injections in the freely behaving animal.

[3] = tested on: respiratory centers of the NTS; assay: Minute ventilation (VE) by whole-body plethysmography after bilateral microinjection into the NTS of freely behaving, conscious rats; assay type: in vivo, rat; conditions: for increase in VE (minute ventilation): 1 nmol injected into NTS, conscious rats; for VE change from baseline: administered at NTS, dose not given (FIG. 1C); for onset/decay characteristics of the VE response: after injection into NTS, compared with hypoxia and return to normoxia (FIGS. 1A, 1B); for effect on VE: excess amount, n=3, P=NS
Source text: To test the hypothesis that SNOs stimulate respiratory centers of the NTS to increase VE, the ability of endogenous SNOs to increase VE in freely behaving, conscious rats using whole-body plethysmography was examined.
as §2

[4] = Decay of CSNO isomers in rat brainstem homogenates; assay type: in vitro ADME
Description: To test the hypothesis that SNOs stimulate respiratory centers of the NTS to increase VE, the ability of endogenous SNOs to increase VE in freely behaving, conscious rats using whole-body plethysmography was examined. […] The L- and D-isomers of CSNO decayed at identical rates in rat brainstem homogenates (26% min-1 mg -1 protein each; P=not significant (NS)).
as §1

[5] = tested on: blood pressure or heart rate; assay: Hemodynamic effects (blood pressure, heart rate) of SNOs; assay type: in vivo; conditions: same species

T1 sequence (P07314 whole entry): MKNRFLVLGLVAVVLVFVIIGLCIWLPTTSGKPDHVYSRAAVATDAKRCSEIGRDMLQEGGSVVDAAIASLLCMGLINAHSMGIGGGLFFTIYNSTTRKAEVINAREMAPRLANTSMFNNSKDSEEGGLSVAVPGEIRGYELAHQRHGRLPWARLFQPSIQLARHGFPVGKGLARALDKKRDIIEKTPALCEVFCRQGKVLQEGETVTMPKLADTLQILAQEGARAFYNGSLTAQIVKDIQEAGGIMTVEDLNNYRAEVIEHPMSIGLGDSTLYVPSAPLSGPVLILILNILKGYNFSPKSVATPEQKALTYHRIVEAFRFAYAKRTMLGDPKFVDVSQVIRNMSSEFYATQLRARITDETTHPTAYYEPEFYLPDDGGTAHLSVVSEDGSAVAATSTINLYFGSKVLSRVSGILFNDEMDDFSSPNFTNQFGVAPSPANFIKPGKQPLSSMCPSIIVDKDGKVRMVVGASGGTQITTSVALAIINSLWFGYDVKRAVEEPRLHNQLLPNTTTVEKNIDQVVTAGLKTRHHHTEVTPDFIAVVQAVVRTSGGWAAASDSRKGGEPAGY

## N[C@@H](CSN=O)C(=O)NCC(=O)O [CGSNO, S-Nitrosocysteinyl glycine]
[1]
  stability relative to GSNO: less stable than GSNO
[2]
  SNO-stimulated VE increase after GGT inhibition: not modified; also recorded: increases minute ventilation; also recorded: overcame this inhibition
[3]
  increase in VE (minute ventilation): marked increase; also recorded: equivalent increases
  VE change from baseline: increases in VE
  onset/decay characteristics of the VE response: identical to those observed during short exposure of the whole animal to hypoxia and return to normoxia

## N[C@@H](CSN=O)C(=O)O [L-CSNO, S-nitroso-L-cysteine]
[4]
  decay rate: 26 % min-1 mg -1 protein
[3]
  increase in VE (minute ventilation): equivalent increases
  VE change from baseline: increases in VE

## N[C@H](CSN=O)C(=O)O [D-CSNO, S-nitroso-D-cysteine, reference compound]
[4]
  decay rate: 26 % min-1 mg -1 protein
[3]
  increase in VE (minute ventilation): no effect
  VE change from baseline: without effect

## N[C@@H](CCC(=O)N[C@@H](CS)C(=O)NCC(=O)O)C(=O)O [glutathione]
[3]
  effect on VE: neither excess 8-bromocyclic GMP nor glutathione had any effect

## N[C@H](C(=O)O)[C@@H]1CC(Cl)=NO1 [acivicin, reference compound]
[2]; NTS pre-treatment with the inhibitor
  effect on GSNO-mediated increases in VE: attenuated
[2]; recovery from hypoxia
  effect on normal ventilatory offset (gradual return of VE to baseline after hypoxia): inhibited

## N[C@@H](CCC(=O)N[C@@H](CSN=O)C(=O)NCC(=O)O)C(=O)O [GSNO, S-nitrosoglutathione]
[2]
  SNO-stimulated VE increase after GGT inhibition: abolished
[5]
  effects on blood pressure or heart rate (hemodynamic effects): no effects; also recorded: not reproduced
[3]
  increase in VE (minute ventilation): equivalent increases
  VE change from baseline: increases in VE; also recorded: dramatically increase
  onset/decay characteristics of the VE response: identical to those for recovery from hypoxia

## Nc1nc2c(nc(Br)n2[C@@H]2O[C@@H]3COP(=O)(O)O[C@H]3[C@H]2O)c(=O)[nH]1 [8-bromocyclic GMP, reference compound]
[3]
  effect on VE: neither excess 8-bromocyclic GMP nor glutathione had any effect
